Experimental data published in ChEMBL document CHEMBL4043130, “Discovery of a tetrahydroisoquinoline-based HDAC inhibitor with improved plasma stability” (Bioorg Med Chem, 2017).
The source made the active and inactive calls. No cut-off for these calls is given here.

How the values were obtained:
[1] = Inhibition of HDAC in human HeLa nuclear extract preincubated for 5 mins followed by Boc-Lys (acetyl)-AMC addition measured after 10 mins by fluorescence assay
MDA-MB-231 [2] = assay: Antitumor activity against human MDA-MB-231 cells xenografted subcutaneously in BALB/c nude mouse assessed as reduction in tumor growth at 90 mg/kg, po; type: functional, organism-based
MDA-MB-231 [3] = assay: Antitumor activity against human MDA-MB-231 cells xenografted subcutaneously in BALB/c nude mouse assessed as reduction in tumor volume at 90 mg/kg, po; type: functional, organism-based
MDA-MB-231 [4] = assay: Antiproliferative activity against human MDA-MB-231 cells after 48 hrs by MTT assay; type: functional, cell-based; settings: MDA-MB-231, 48 h
U-266 = assay: Antiproliferative activity against human U266 cells after 48 hrs by MTT assay; type: functional, cell-based; settings: U-266, 48 h
[5] = biological target: Histone deacetylase 1/2/3 (Homo sapiens) (UniProt Q13547+O15379+Q92769); assay: Inhibition of HDAC1/2/3 in human MDA-MB-231 cells assessed as increase in hyperacetylation of histone H3 level at 1 uM after 3 hrs by Western blot analysis; type: cell-based
[6] = Half life in rat plasma by HPLC analysis; type: ADME, cell-free
U-937 = assay: Antiproliferative activity against human U937 cells after 48 hrs by MTT assay; type: functional, cell-based; settings: U-937, 48 h
[7] = biological target: T1, Protein deacetylase HDAC6 (Homo sapiens) (UniProt Q9UBN7); assay: Inhibition of HDAC6 in human MDA-MB-231 cells assessed as increase in acetylated alpha tubulin level at 1 uM after 3 hrs by Western blot analysis; type: cell-based
T1 sequence (whole entry): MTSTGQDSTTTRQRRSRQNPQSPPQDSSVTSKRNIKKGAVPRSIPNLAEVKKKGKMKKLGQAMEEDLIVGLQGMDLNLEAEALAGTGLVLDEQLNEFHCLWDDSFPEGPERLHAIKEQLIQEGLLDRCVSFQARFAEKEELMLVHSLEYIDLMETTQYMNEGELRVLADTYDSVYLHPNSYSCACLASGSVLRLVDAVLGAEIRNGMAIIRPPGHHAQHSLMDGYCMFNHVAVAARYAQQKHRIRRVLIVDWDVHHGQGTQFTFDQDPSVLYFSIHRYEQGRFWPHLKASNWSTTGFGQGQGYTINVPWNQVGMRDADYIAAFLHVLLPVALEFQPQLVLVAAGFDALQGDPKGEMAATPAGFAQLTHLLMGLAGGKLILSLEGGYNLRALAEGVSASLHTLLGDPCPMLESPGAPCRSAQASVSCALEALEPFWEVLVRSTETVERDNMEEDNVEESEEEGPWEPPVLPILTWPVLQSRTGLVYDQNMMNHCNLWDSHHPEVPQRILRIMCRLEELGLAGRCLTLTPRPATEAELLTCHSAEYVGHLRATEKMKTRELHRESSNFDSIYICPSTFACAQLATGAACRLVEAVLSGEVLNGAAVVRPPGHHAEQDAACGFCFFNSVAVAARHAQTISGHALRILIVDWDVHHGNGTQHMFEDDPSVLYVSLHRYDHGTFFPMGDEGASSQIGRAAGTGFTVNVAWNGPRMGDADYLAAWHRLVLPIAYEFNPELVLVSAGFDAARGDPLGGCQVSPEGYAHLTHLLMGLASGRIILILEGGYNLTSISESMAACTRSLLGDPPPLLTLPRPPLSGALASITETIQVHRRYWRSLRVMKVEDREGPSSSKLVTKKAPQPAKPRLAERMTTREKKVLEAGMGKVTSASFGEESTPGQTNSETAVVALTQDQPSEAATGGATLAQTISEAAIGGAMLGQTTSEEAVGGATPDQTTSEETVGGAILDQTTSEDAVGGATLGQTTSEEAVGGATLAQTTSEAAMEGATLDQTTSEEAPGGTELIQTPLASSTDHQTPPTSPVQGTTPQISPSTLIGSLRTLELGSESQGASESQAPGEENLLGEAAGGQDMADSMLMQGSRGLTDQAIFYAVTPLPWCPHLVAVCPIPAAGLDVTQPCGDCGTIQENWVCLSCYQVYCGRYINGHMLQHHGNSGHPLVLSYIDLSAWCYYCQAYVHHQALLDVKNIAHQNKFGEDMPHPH

CC[C@H](C)[C@H](NC(=O)CC(C)(C)C)C(=O)N1Cc2cc(OCC(=O)NO)ccc2C[C@H]1C(=O)Nc1ccc(OC)cc1
IC50 [1]: 69.4 nM | TGI (MDA-MB-231 [2]): Active | inhibition (MDA-MB-231 [3]): Active | IC50 (MDA-MB-231 [4]): 2560 nM | IC50 (U-266): 690 nM | inhibition [5]: Active | half-life [6]: 1.72 h | IC50 (U-937): 560 nM | inhibition [7]: Active

CC[C@H](C)[C@H](NC(=O)CC(C)(C)C)C(=O)N1Cc2cc(OCC(=O)NO)ccc2C[C@H]1C(=O)Nc1ccc(N(C)C)cc1
IC50 [1]: 38.5 nM | TGI (MDA-MB-231 [2]): Active | inhibition (MDA-MB-231 [3]): Active | IC50 (MDA-MB-231 [4]): 2130 nM | IC50 (U-266): 780 nM | inhibition [5]: Active | half-life [6]: 10.5 h | IC50 (U-937): 550 nM | inhibition [7]: Active

CN(C)c1ccc(NC(=O)[C@@H]2Cc3ccc(OCC(=O)NO)cc3CN2C(=O)CNC(=O)CC(C)(C)C)cc1
IC50 [1]: 377 nM | half-life [6]: 1.13 h

CC[C@H](C)[C@H](NC(=O)OC(C)(C)C)C(=O)N1Cc2cc(OCC(=O)NO)ccc2C[C@H]1C(=O)Nc1ccc(N(C)C)cc1
IC50 [1]: 55 nM | half-life [6]: 2.18 h
